{
  "source": "paper PMC9738927",
  "about": "“A Newly Identified Monoterpenoid-Based Small Molecule Able to Support the Survival of Primary Cultured Dopamine Neurons and Alleviate MPTP-Induced Toxicity In Vivo” (Molecules, 2022)",
  "key": {"[1]": {"system": "MPTP-treated mice", "test": "Open field test in the acute MPTP mouse model of PD", "type": "in vivo", "method": "MPTP was injected intraperitoneally into mice of C57Bl/6 line every 2 h in 8 h period in one day in a dose of 20 mg/kg for a total of four doses as described before, and one additional dose of MPTP was injected on the 7th day. The studied compound PA96 was dissolved in saline containing 0.5% Tween 80 just before use. PA96 in a dose of 1 and 10 mg/kg or VEH was administrated per os 24 h after the last injection of MPTP. Then, PA96 or VEH was injected for 14 days in a 5-day-per-week regime for a total of […].\nThe effectiveness of the studied medications was evaluated according to their ability to reduce the symptoms of hypokinesia induced by MPTP on days 1, 7, and 14 of the experiment. Hypokinesia caused by neurotoxin administration was evaluated with the “open field” test performed for 2 min using Tru Scan (U.S.) 2 h after the administration of the studied compound, registering the main markers of the locomotor and exploratory activities: time of locomotor activity (s) and movement distance (cm)."}, "[2]": {"system": "haloperidol-induced catalepsy", "test": "Haloperidol-induced catalepsy, parallel bars test", "type": "in vivo, male Wistar rats", "conditions": "1, 10, 20 mg/kg per os, haloperidol 1.5 mg/kg i.p.", "method": "Neuroleptic-induced catalepsy has long been used as an animal model for screening drugs for parkinsonism, as described before. Adult male Wistar rats were divided into four groups, each containing six animals. Group 1 received haloperidol 1.5 mg/kg in normal saline and served as the cataleptic control without any drug treatment. The studied compound PA96 was dissolved in saline containing 0.5% Tween 80 just before use. Groups 2, 3, and 4 received PA-96 in a dose of 1, 10, or 20 mg/kg per os accordingly; 10 min after the PA96 administration, catalepsy was induced by the intraperitoneal administration of haloperidol in a dose of 1.5 mg/kg body weight in normal saline. All the behavioral studies were performed at room temperature in a calm room without external interference. The severity of catalepsy was measured 30, 60, 120, 180, and 240 min after haloperidol administration using the method of parallel bars. The fore and hind limbs of a rat were placed on parallel bars (walls) to ensure that the animal’s back was straight, and the time spent by the animal in an immobilized state was recorded. The general duration of catalepsy and the percentage of cataleptic animals in the group were evaluated."}, "[3]": {"test": "Pharmacokinetics in whole blood after a single oral dose (HPLC-MS/MS)", "type": "in vivo, CD1 IGS mice", "conditions": "single oral 10 mg/kg", "method": "Six CD1 IGS mice were administered orally with the compound PA96 in Tween 80 at doses of 10 mg/kg. Blood was collected from the tail after the amputation of a small distal piece. Time points were 5, 10, 30, 60, and 120 min after injection. Experimental blood samples were transferred into tubes for the precipitation of blood proteins with a mixture of zinc sulfate and methanol (2:8, v/v). A set of calibrators were prepared in advance, followed by their preparation protocol, and analyzed by HPLC-MS/MS for standard comparison. The calibration curve was built in the range of 25–2000 ng/mL. According to the signal-concentration profile, the content of PA96 in the experimental blood samples at each time point was calculated.\nThe stock solution of PA96 (1.0 mg/mL) was prepared by dissolving an accurately weighed amount of the substance in 100% methanol. To obtain a set of working solutions with concentrations of 0.01, 0.05, 0.1, 0.25, 0.5, 1, 2.5, 5, 7.5, 10, 15, and 20 µg/mL, the stock solution of PA96 was diluted with methanol. Calibration standards (calibrators) were prepared by mixing 10 μL of each individual working solution and 90 μL of mouse whole blood. Samples were stirred gently on an orbital shaker at 1000 rpm and left at 4 °C for 1 h for equilibration. The stock solution of IS with a concentration of 1.0 mg/mL was prepared by dissolving a weighed amount of 2-adamantylamine hydrochloride in pure methanol. The solution for the protein precipitation procedure was a mixture of 2 parts of 0.2 M aqueous solutions of zinc sulfate per 8 parts of a solution of IS in methanol with a concentration of 10 µg/mL. All solutions were stored at −18 °C and brought to their ambient temperature before use.\nAn aliquot of 10 µL of each whole blood sample was placed into an Eppendorf microtube (1.5 mL), then the precipitation solution of 50 µL was added to each tube. All samples were vortexed for 20–30 s and then centrifuged (Eppendorf MiniSpin, Eppendorf, Germany) for 10 min at 13,400 rpm. The supernatant was transferred into a chromatographic vial and analyzed.\nThe LC-MS/MS analysis was performed using an LC-20AD Prominence chromatograph equipped with an autosampler thermostated at +10 °C (Shimadzu, Japan) and a 3200 QTRAP mass spectrometer equipped with an ESI source (AB SCIEX, USA). Separation was achieved on a ProntoSil-120-5-C18 AQ column (2.0 × 75 mm, 5 μm particles, (EcoNova, Novosibirsk, Russia)) thermostated at +35 °C. The mobile phase was composed of water containing 0.1% formic acid (eluent A) and methanol containing 0.1% formic acid (eluent B). The gradient elution program was as follows: 0 min-10% (B); 0.5 min-10% (B); 7 min-98% (B); 9 min-98% (B); the flow rate was 200 μL/min.\nThe mass spectrometer was operated using multiple reaction monitoring (MRM) in positive ion mode. Ionization was conducted by applying a voltage of 5500 V, and the source temperature was set at +350 °C. For the analyte and IS, the optimized source parameters, viz. CUR (curtain gas), GS1 (Gas 1), and GS2 (Gas 2) were set at 20 psi. The CAD (collisionally activated dissociation) gas was nitrogen, and the parameter was set as high. The parameters of PA96, viz. MRM transitions, declustering potentials (DP), collision energies (CE), and collision cell exit potentials (CXP) are presented in Table 3. The dwell time was 100 msec. Analyst 1.6.2 software (AB SCIEX, USA) was used for instrument control and data acquisition, and MultiQuant 2.1 software (AB SCIEX, USA) was used for quantification. To calculate the main pharmacokinetic parameters, the Microsoft Excel–PKSolver was used."}, "[4]": {"conditions": "CD1 IGS, mouse, whole blood, blood"}},
  "data": [
    {"molecule": "C=C(C)[C@@H]1CC=C(C)[C@@H](Sc2nc[nH]n2)[C@@H]1O", "note": "[PA96, (1R,2R,6S)-2-(1H-1,2,4-triazol-3-ylthio)-3-methyl-6-(prop-1-en-2-yl)cyclohex-3-enol]", "values": [
      {"measurement": "tolerability of repeated dosing", "setting": "[1]; 1 mg/kg and 10 mg/kg administered for 14 days", "result": "well tolerated"},
      {"measurement": "duration of locomotor activity in open field", "setting": "[1]; MPTP-treated mice, 1 mg/kg, 24 h time point, p = 0.1328 vs VEH", "result": "on VEH level"},
      {"measurement": "movement distance in open field", "setting": "[1]; MPTP-treated mice, 1 and 10 mg/kg per os", "result": "did not influence"},
      {"measurement": "catalepsy time", "setting": "[2]", "result": "significantly decreased"},
      {"measurement": "percentage of cataleptic animals", "setting": "[2]", "result": "significantly decreased"},
      {"measurement": "half-life", "setting": "[3]; CD1 IGS, mouse, whole blood, po, 10 mg/kg, blood", "result": "~24", "unit": "min"},
      {"measurement": "AUC0-t", "setting": "[3]; [4]", "result": 278, "unit": "ng·h/mL"},
      {"measurement": "Cmax", "setting": "[3]; [4]", "result": 550, "unit": "ng/mL"},
      {"measurement": "Tmax", "setting": "[3]; [4]", "result": 5, "unit": "min"},
      {"measurement": "AUC(0-inf)", "setting": "[3]; CD1 IGS, mouse, whole blood, blood, read-out: AUC0-inf_obs", "result": 290, "unit": "ng·h/mL"},
      {"measurement": "MRT inf", "setting": "[3]; CD1 IGS, mouse, whole blood, blood, read-out: MRT0-inf_obs (converted)", "result": 29.7, "unit": "min"},
      {"measurement": "Cl/F_obs", "setting": "[3]; blood", "result": "(5.8 ± 0.6) × 10^−4 (mg/kg)/(ng/mL)/min"},
      {"measurement": "Vz/F_obs", "setting": "[3]; blood", "result": "(18.9 ± 0.6) × 10^−3 (ml/kg)/(ng/mL)"},
      {"measurement": "time at which the minimum detectable concentration in blood was observed", "setting": "[3]", "result": 1, "unit": "h"}
    ]}
  ]
}
